Patent US20260315447A1, “COMBINATION THERAPY WITH A MTOR INHIBITOR AND A MULTI-TYROSINE KINASE INHIBITOR FOR TREATING SOFT TISSUE SARCOMA” (ADDi Bioscience, Inc., priority 2023, published 2026)
Entries after “also recorded” stand apart in the source; their conditions may differ.

What was measured:
human plasma proteins = conditions: cited from earlier work
[1] = system: Human serum albumin (HSA); conditions: cited from earlier work
[2] = Phase I study of oral pazopanib and intravenous nab-sirolimus: safety (adverse events, dose-limiting toxicity, recommended dose); type: in vivo, human; conditions: by mouth daily, in combination with nab-sirolimus 30 mg/m^2
Source text: This was a phase I study designed to determine the safety and feasibility of a combination of oral pazopanib hydrochloride and intravenous nab-sirolimus. To obtain preliminary information regarding efficacy, the study had limited enrollment to those patients with advanced/unresectable STS for whom single agent pazopanib was indicated as a therapy.
The primary endpoint of the study was the determination of a maximum-tolerated dose (MTD) and recommended Phase 2 dose of nab-sirolimus combined with pazopanib. Secondary endpoints included characterization of adverse events of the nab-sirolimus/pazopanib combination and descriptive characterization of clinical benefit of the nab-sirolimus/pazopanib combination (objective responses, progression-free survival duration, and clinical benefit rates at 3 and 6 months). Correlative endpoints were included to evaluate the correlation of clinical benefit with baseline mTOR pathway activation status, as assessed by immunohistochemistry for phosphorylated-S6 ribosomal protein, correlation of clinical benefit with baseline tumoral expression of Serum Protein Acidic and Rich in Cysteine (SPARC)/Osteonectin, as assessed by immunohistochemistry, and pharmacokinetics of nab-sirolimus in combination with pazopanib.
If no DLT occurred after two doses, escalation to the next dose level was permitted. […]

soft-tissue sarcoma = conditions: single agent pazopanib, soft-tissue sarcoma patients; cited from earlier work
mTORC2 = conditions: cited from earlier work
mTORCI = conditions: cited from earlier work

CC(=O)O[C@@]12CO[C@@H]1C[C@H](O)[C@@]1(C)C(=O)[C@H](O)C3=C(C)[C@@H](OC(=O)[C@H](O)[C@@H](NC(=O)OC(C)(C)C)c4ccccc4)C[C@@](O)([C@@H](OC(=O)c4ccccc4)[C@H]21)C3(C)C [docetaxel]
binding to human plasma proteins (human plasma proteins): bind to human plasma proteins

CO[C@H]1C[C@@H]2CC[C@@H](C)[C@@](O)(O2)C(=O)C(=O)N2CCCC[C@H]2C(=O)O[C@H]([C@H](C)C[C@@H]2CC[C@@H](O)[C@H](OC)C2)CC(=O)[C@H](C)/C=C(\C)[C@@H](O)[C@@H](OC)C(=O)[C@H](C)C[C@H](C)/C=C/C=C/C=C/1C [Rapamycin, rapamycin]
binding to HSA [1]: bind HSA

CC(C)c1cccc(C(C)C)c1O [propofol]
binding to HSA [1]: bind HSA

Cc1ccc(Nc2nccc(N(C)c3ccc4c(C)n(C)nc4c3)n2)cc1S(N)(=O)=O [pazopanib]
Recommended Phase 2 dose of pazopanib [2]: 400 mg | overall survival compared to placebo control (soft-tissue sarcoma): did not have a meaningful improvement in overall survival rate; also recorded: not found to provide a significant difference in overall survival | response rate (soft-tissue sarcoma): ~6%

COc1cccc2cc(-c3nc([C@H]4CC[C@H](C(=O)O)CC4)n4ncnc(N)c34)[nH]c12 [OSI-027]
IC50 (mTORC2): 65 nM | IC50 (mTORCI): 22 nM
